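Tested at 5 concentrations; 48 h exposure; 96-well plates; endpoints linearly interpolated, else capped at highest concentration. The concentration for 50% growth inhibition is given as GI50.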 Activity calls are given as the source filed them. Cut-off read from the data, not from the text of the source: active = GI50 up to about 1.1 µM and inactive = higher.
Experiments:
Experiment in all cases: NCI-60 cell line screen, 48 h
[1] = test system: Malme-3M
[2] = test system: SNB-75
[3] = test system: OVCAR-4
[4] = test system: KM12
[5] = test system: T47D
[6] = test system: SN12C
[7] = test system: HT-29
[8] = test system: NCI-H23
[9] = test system: IGROV-1
[10] = test system: A549
[11] = test system: UACC-257
[12] = test system: MDA-MB-231
[13] = test system: DU-145
[14] = test system: RPMI-8226
[15] = test system: U-251
[16] = test system: Hs-578T
[17] = test system: SW-620
[18] = test system: OVCAR-5
[19] = test system: LOX IMVI
[20] = test system: M14
[21] = test system: 786-0
[22] = test system: SR
[23] = test system: HCT-116
[24] = test system: SF-539
[25] = test system: PC-3
[26] = test system: MCF7
[27] = test system: SNB-19
[28] = test system: SK-MEL-2
[29] = test system: SF-268
[30] = test system: NCI-H226
[31] = test system: MDA-MB-435
[32] = test system: UO-31
[33] = test system: MDA-N
[34] = test system: HOP-62
[35] = test system: OVCAR-8
[36] = test system: OVCAR-3
[37] = test system: SF-295
[38] = test system: UACC-62
[39] = test system: HCT-15
[40] = test system: SK-MEL-5
[41] = test system: HL-60
[42] = test system: HCC 2998
[43] = test system: NCI-H460
[44] = test system: ACHN
[45] = test system: K562
[46] = test system: TK-10
[47] = test system: SK-OV-3
[48] = test system: CCRF-CEM
[49] = test system: BT-549
[50] = test system: NCI/ADR-RES
[51] = test system: MOLT-4
[52] = test system: COLO 205
[53] = test system: SK-MEL-28
[54] = test system: RXF 393
[55] = test system: EKVX

With CCOP(=O)(OCC)C(C)(CC)N/C(N)=N/C#N (stereo not given) the GI50 [1] was > 100 µM (inactive), the GI50 [2] was > 100 µM (inactive) and the GI50 [3] was > 100 µM (inactive). For the same compound, the GI50 [4] was > 100 µM (inactive), the GI50 [5] was > 100 µM (inactive) and the GI50 [6] was > 100 µM (inactive). For the same compound, the GI50 [7] was > 100 µM (inactive), the GI50 [8] was > 100 µM (inactive) and the GI50 [9] was > 100 µM (inactive). For the same compound, the GI50 [10] was > 100 µM (inactive), the GI50 [11] was > 100 µM (inactive) and the GI50 [12] was > 100 µM (inactive). The GI50 [13] was > 100 µM (inactive), the GI50 [14] was > 100 µM (inactive) and the GI50 [15] was > 100 µM (inactive). For the same compound, the GI50 [16] was > 100 µM (inactive), the GI50 [17] was > 100 µM (inactive) and the GI50 [18] was > 100 µM (inactive). The GI50 [19] was > 100 µM (inactive), the GI50 [20] was > 100 µM (inactive) and the GI50 [21] was > 100 µM (inactive). For the same compound, the GI50 [22] was > 100 µM (inactive), the GI50 [23] was > 100 µM (inactive) and the GI50 [24] was > 100 µM (inactive). For the same compound, the GI50 [25] was > 100 µM (inactive), the GI50 [26] was > 100 µM (inactive) and the GI50 [27] was > 100 µM (inactive). For the same compound, the GI50 [28] was > 100 µM (inactive), the GI50 [29] was > 100 µM (inactive) and the GI50 [30] was > 100 µM (inactive). The GI50 [31] was > 100 µM (inactive), the GI50 [32] was > 100 µM (inactive) and the GI50 [33] was > 100 µM (inactive). For the same compound, the GI50 [34] was > 100 µM (inactive), the GI50 [35] was > 100 µM (inactive) and the GI50 [36] was > 100 µM (inactive). The GI50 [37] was > 100 µM (inactive), the GI50 [38] was > 100 µM (inactive) and the GI50 [39] was greater than 100 µM. The GI50 [40] was > 100 µM (inactive), the GI50 [41] was > 100 µM (inactive) and the GI50 [42] was > 100 µM (inactive). For the same compound, the GI50 [43] was > 100 µM (inactive), the GI50 [44] was > 100 µM (inactive) and the GI50 [45] was > 100 µM (inactive). The GI50 [46] was > 100 µM (inactive), the GI50 [47] was > 100 µM (inactive) and the GI50 [48] was > 100 µM (inactive). For the same compound, the GI50 [49] was > 100 µM (inactive), the GI50 [50] was > 100 µM (inactive) and the GI50 [51] was > 100 µM (inactive). For the same compound, the GI50 [52] was > 100 µM (inactive), the GI50 [53] was > 100 µM (inactive) and the GI50 [54] was > 100 µM (inactive). For the same compound, the GI50 [55] was > 100 µM (inactive).

Source: ChEMBL document CHEMBL1201862, “PubChem BioAssay data set” (2004)
